test system: VIM-2-transformed E. coli growth with imipenem, MIC; test: growth inhibition of VIM-2-expressing E. coli with imipenem, late-stage follow-up, counter-screen for IMP-1 and VIM-2 inhibitor project, VIM-2-transformed E. coli, imipenem co-treatment (AID 463100)

| SMILES | MIC [µM] |
| --- | --- |
| Cc1cc[c]([Hg+])cc1 | 0.651 |
| COc1cccc[c]1[Hg+] | 0.781 |
| CC(=O)Nc1cc[c]([Hg+])cc1 | 2.5 |
| O=C(O)c1ccc[c]([Hg+])c1 | 2.08 |
| [Hg+][c]1ccccc1 | 0.625 |
| O=C(O)c1cc[c]([Hg][Cl])cc1 | 9.37 |

— PubChem BioAssay AID463100 (The Scripps Research Institute Molecular Screening Center, 2010)
